Consider 20 compounds from US20230159511A1, “TETRAHYDROISOQUINOLINE COMPOUNDS AS NRF2 ACTIVATORS” (C4X Discovery Limited, priority 2020, published 2023).

T1 sequence (Q14145 321-609): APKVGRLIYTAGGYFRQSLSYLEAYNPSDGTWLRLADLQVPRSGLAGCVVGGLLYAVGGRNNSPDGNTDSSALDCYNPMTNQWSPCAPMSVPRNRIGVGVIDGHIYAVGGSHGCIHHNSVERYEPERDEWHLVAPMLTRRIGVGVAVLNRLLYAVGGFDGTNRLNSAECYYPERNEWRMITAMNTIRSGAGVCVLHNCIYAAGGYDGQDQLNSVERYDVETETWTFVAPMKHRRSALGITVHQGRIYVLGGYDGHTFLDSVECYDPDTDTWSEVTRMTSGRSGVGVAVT

This experiment addresses T1, human KEAP1 (N-term, residues 321-609) (Homo sapiens, UniProt Q14145).
T1 construct: human KEAP1 (N-term, residues 321-609)
Kind of experiment: KEAP1 Kelch Fluorescence Polarization (FP) Assay. It is filed as binding. The following applies: inhibition of Kelch domain-NRF2 interaction; 2 nM FITC-labelled NRF2 peptide, 25 nM KEAP1, 1 h room temperature; compounds below 10 nM cannot be differentiated. As for the experimental part: KEAP1 Kelch Fluorescence Polarization (FP) Assay Method
Inhibition of the Kelch domain-NRF2 interaction was determined using a fluorescence polarization-based competition assay in a black 384-well microplate. Compounds were tested at a starting concentration of 10 μM serially diluted 1:3 to generate a 12-point dose response curve on the Biomek FX robot. Each well contained 2 nM FITC-labelled NRF2 peptide (FITC-LDEETGEFL-NH2) and 25 nM human KEAP1 (N-term, residues 321-609) enzyme in a final volume of 20 μL of assay buffer (50 mM Tris-HCl pH 8.0, 100 mM NaCl, 5 mM MgCl2, 0.005% Tween-20, 0.005% BSA, 0.5% DMSO) in the presence of varying concentrations of test compound. Unlabelled peptide (LDEETGEFL-NH2) at 50 μM (negative control) and 0.5% DMSO (positive control) was used to determine the assay window.
After 1 h at room temperature, fluorescence polarization (excitation 470 nm/emission 530 nm) was measured using an Envision plate reader. IC50 values were determined by fitting the data to a four parameter logistic fit using XLfit or XE Runner within ActivityBase. The assay limit is such that compounds below 10 nM cannot be differentiated.
With `CNC(=O)CCCOc1cccc2c1[C@@H](CN1C(=O)c3ccccc3C1=O)N(C(=O)[C@@H]1CCCC[C@@H]1C(=O)NC)CC2` [Example 2, (1S,2R)-2-((S)-1-((1,3-dioxoisoindolin-2-yl)methyl)-8-(4-(methylamino)-4-oxobutoxy)-1,2,3,4-tetrahydroisoguinoline-2-carbonyl)-N-methylcyclohexane-1-carboxamide], the IC50 was 339 nM.
With `CNC(=O)[C@H]1CCCC[C@H]1C(=O)N1CCc2cccc(OCCNC(=O)c3noc(C)c3C)c2[C@H]1CN1C(=O)c2ccccc2C1=O` [Example 4, N-(2-(((S)-1-((1,3-dioxoisoindolin-2-yl)methyl)-2-((1R,2S)-2-(methylcarbamoyl)cyclo-hexane-1-carbonyl)-1,2,3,4-tetrahydroisoquinolin-8-yl)oxy)ethyl)-4,5-dimethylisoxazole-3-carboxamide], the IC50 is 161 nM.
Regarding `CNC(=O)[C@H]1CCCC[C@H]1C(=O)N1CCc2cccc(O[C@H]3CCN(C(C)=O)C3)c2[C@H]1CN1C(=O)c2ccccc2C1=O` [Example 5, (1S,2R)-2-((S)-8-(((S)-1-acetylpyrrolidin-3-yl)oxy)-1-((1,3-dioxoisoindolin-2-yl)methyl)-1,2,3,4-tetrahydroisoquinoline-2-carbonyl)-N-methylcyclohexane-1-carboxamide], the IC50 turned out to be 147 nM.
The result for `Cc1cc(C(=O)NCCOc2cccc3c2[C@@H](CN2C(=O)c4ccccc4C2=O)N(C(=O)[C@@H]2CCCC[C@@H]2C(=O)NC2CC2)CC3)no1` [Example 7, N-(2-(((S)-2-((1R,2S)-2-(cyclopropylcarbamoyl)cyclohexane-1-carbonyl)-1-((1,3-dioxoisoindolin-2-yl)methyl)-1,2,3,4-tetrahydroisoquinolin-8-yl)oxy)ethyl)-5-methylisoxazole-3-carboxamide] reads 196 nM; that for `Cc1cc(C(=O)NCCOc2cccc3c2[C@@H](CN2C(=O)c4ccccc4C2=O)N(C(=O)[C@@H]2CCCC[C@@H]2C(=O)N2CC(O)C2)CC3)no1` [Example 8, N-(2-(((S)-1-((1,3-dioxoisoindolin-2-yl)methyl)-2-((1R,2S)-2-(3-hydroxyazetidine-1-carbonyl)cyclohexane-1-carbonyl)-1,2,3,4-tetrahydroisoquinolin-8-yl)oxy)ethyl)-5-methylisoxazole-3-carboxamide], 1280 nM; that for `Cc1cc(C(=O)NCCOc2cccc3c2[C@@H](CN2C(=O)c4ccccc4C2=O)N(C(=O)[C@@H]2CCCC[C@@H]2C(=O)NC2CCC2)CC3)no1` [Example 9, N-(2-(((S)-2-((1R,2S)-2-(cyclobutylcarbamoyl)cyclo-hexane-1-carbonyl)-1-((1,3-dioxoisoindolin-2-yl)methyl)-1,2,3,4-tetrahydroisoquinolin-8-yl)oxy)ethyl)-5-methylisoxazole-3-carboxamide], 119 nM.
`CNC(=O)[C@H]1CCCC[C@H]1C(=O)N1CCc2cccc(OCCNC(=O)c3nc4ccccc4o3)c2[C@H]1CN1C(=O)c2ccccc2C1=O` [Example 11, N-(2-(((S)-1-((1,3-dioxoisoindolin-2-yl)methyl)-2-((1R,2S)-2-(methylcarbamoyl)cyclo-hexane-1-carbonyl)-1,2,3,4-tetrahydroisoquinolin-8-yl)oxy)ethyl)benzo[d] oxazole-2-carboxamide] had a half-maximal inhibitory concentration (IC50) of 37 nM.
Regarding `CNC(=O)[C@H]1CCCC[C@H]1C(=O)N1CCc2cccc(OCCNC(=O)c3noc4ccccc34)c2[C@H]1CN1C(=O)c2ccccc2C1=O` [Example 12, N-(2-(((S)-1-((1,3-dioxoisoindolin-2-yl)methyl)-2-((1R,2S)-2-(methylcarbamoyl)cyclo-hexane-1-carbonyl)-1,2,3,4-tetrahydroisoquinolin-8-yl)oxy)ethyl)benzo[d] isoxazole-3-carboxamide], the IC50 was 56 nM.
With `CNC(=O)[C@H]1CCCC[C@H]1C(=O)N1CCc2cccc(OCCNS(=O)(=O)c3cnoc3C)c2[C@H]1CN1C(=O)c2ccccc2C1=O` [Example 13, (1S,2R)-2-((S)-1-((1,3-dioxoisoindolin-2-yl)methyl)-8-(2-((5-methylisoxazole)-4-sulfonamido)ethoxy)-1,2,3,4-tetrahydroisoquinoline-2-carbonyl)-N-methylcyclohexane-1-carboxamide] the figure was 169 nM.
For `CNC(=O)[C@H]1CCCC[C@H]1C(=O)N1CCc2cccc(O[C@H]3CCN(C(=O)c4cncnc4)C3)c2[C@H]1CN1C(=O)c2ccccc2C1=O` [Example 14, (1S,2R)-2-((S)-1-((1,3-dioxoisoindolin-2-yl)methyl)-8-(((S)-1-(pyrimidine-5-carbonyl)pyrrolidin-3-yl)oxy)-1,2,3,4-tetrahydroisoquinoline-2-carbonyl)-N-methylcyclohexane-1-carboxamide], the concentration for half-maximal inhibition (IC50) is 183 nM.
For `CNC(=O)[C@H]1CCCC[C@H]1C(=O)N1CCc2cccc(O[C@H]3CCN(C(=O)c4cccnc4)C3)c2[C@H]1CN1C(=O)c2ccccc2C1=O` [Example 15, (1S,2R)-2-((S)-1-((1,3-dioxoisoindolin-2-yl)methyl)-8-(((S)-1-nicotinoylpyrrolidin-3-yl)oxy)-1,2,3,4-tetrahydroisoquinoline-2-carbonyl)-N-methylcyclohexane-1-carboxamide], the IC50 is 93 nM.
The result for `CNC(=O)[C@H]1CCCC[C@H]1C(=O)N1CCc2cccc(O[C@H]3CCN(S(=O)(=O)c4cnoc4C)C3)c2[C@H]1CN1C(=O)c2ccccc2C1=O` [Example 16, (1S,2R)-2-((S)-1-((1,3-dioxoisoindolin-2-yl)methyl)-8-(((S)-1-((5-methylisoxazol-4-yl)sulfonyl)pyrrolidin-3-yl)oxy)-1,2,3,4-tetrahydroisoquinoline-2-carbonyl)-N-methylcyclohexane-1-carboxamide] reads 366 nM.
The result for `CNC(=O)[C@H]1CCCC[C@H]1C(=O)N1CCc2cccc(OCCNC(=O)c3nccs3)c2[C@H]1CN1C(=O)c2ccccc2C1=O` [Example 18, N-(2-(((S)-1-((1,3-dioxoisoindolin-2-yl)methyl)-2-((1R,2S)-2-(methylcarbamoyl)cyclo-hexane-1-carbonyl)-1,2,3,4-tetrahydroisoquinolin-8-yl)oxy)ethyl)thiazole-2-carboxamide] reads 119 nM.
In turn, `CNC(=O)[C@H]1CCCC[C@H]1C(=O)N1CCc2cccc(O[C@H]3CCN(C(=O)C4CC4)C3)c2[C@H]1CN1C(=O)c2ccccc2C1=O` [Example 19, (1S,2R)-2-((S)-8-(((S)-1-(cyclopropanecarbonyl)pyrrolidin-3-yl)oxy)-1-((1,3-dioxoisoindolin-2-yl)methyl)-1,2,3,4-tetrahydroisoquinoline-2-carbonyl)-N-methylcyclohexane-1-carboxamide] gave a 50% inhibitory concentration (IC50) of 196 nM.
The compound `CNC(=O)[C@H]1CCCC[C@H]1C(=O)N1CCc2cccc(OCc3cnco3)c2[C@H]1CN1C(=O)c2ccccc2C1=O` [Example 21, (1S,2R)-2-((S)-1-((1,3-dioxoisoindolin-2-yl)methyl)-8-(oxazol-5-ylmethoxy)-1,2,3,4-tetrahydroisoquinoline-2-carbonyl)-N-methylcyclohexane-1-carboxamide] returned an IC50 of 2250 nM.
`CNC(=O)[C@H]1CCCC[C@H]1C(=O)N1CCc2cccc(O[C@H]3CCN(C(=O)c4cnc(C)s4)C3)c2[C@H]1CN1C(=O)c2ccccc2C1=O` [Example 22, (1S,2R)-2-((S)-1-((1,3-dioxoisoindolin-2-yl)methyl)-8-(((S)-1-(2-methylthiazole-5-carbonyl)pyrrolidin-3-yl)oxy)-1,2,3,4-tetrahydroisoquinoline-2-carbonyl)-N-methylcyclohexane-1-carboxamide] returned an IC50 of 32 nM.
`CNC(=O)[C@H]1CCCC[C@H]1C(=O)N1CCc2cccc(O[C@H]3CCN(C(=O)c4sc(C)nc4C)C3)c2[C@H]1CN1C(=O)c2ccccc2C1=O` [Example 23, (1S,2R)-2-((S)-8-(((S)-1-(2,4-dimethylthiazole-5-carbonyl)pyrrolidin-3-yl)oxy)-1-((1,3-dioxoisoindolin-2-yl)methyl)-1,2,3,4-tetrahydroisoquinoline-2-carbonyl)-N-methylcyclohexane-1-carboxamide] displayed an IC50 of 606 nM.
With `CNC(=O)[C@H]1CCCC[C@H]1C(=O)N1CCc2cccc(O[C@H]3CCN(C(=O)c4csc(C)n4)C3)c2[C@H]1CN1C(=O)c2ccccc2C1=O` [Example 24, (1S,2R)-2-((S)-1-((1,3-dioxoisoindolin-2-yl)methyl)-8-(((S)-1-(2-methylthiazole-4-carbonyl)pyrrolidin-3-yl)oxy)-1,2,3,4-tetrahydroisoquinoline-2-carbonyl)-N-methylcyclohexane-1-carboxamide] the figure was 294 nM; with `CNC(=O)C[C@@H](C)C(=O)N1CCc2cccc(O[C@H]3CCN(C(=O)c4cncs4)C3)c2[C@H]1CN1C(=O)c2ccccc2C1=O` [Example 25, (R)-4-((S)-1-((1,3-dioxoisoindolin-2-yl)methyl)-8-(((S)-1-(thiazole-5-carbonyl)pyrrolidin-3-yl)oxy)-3,4-dihydroisoquinolin-2(1H)-yl)-N,3-dimethyl-4-oxobutanamide], 292 nM; with `CNC(=O)[C@H]1CCCC[C@H]1C(=O)N1CCc2cccc(O[C@H]3CCN(C(=O)c4cncs4)C3)c2[C@H]1CN1CCCC1=O` [Example 26, (1S,2R)-N-methyl-2-((S)-1-((2-oxopyrrolidin-1-yl)methyl)-8-(((S)-1-(thiazole-5-carbonyl)pyrrolidin-3-yl)oxy)-1,2,3,4-tetrahydroisoquinoline-2-carbonyl)cyclohexane-1-carboxamide], 61 nM.
